Tested on: Cricetinae gen. sp.
Assay: In vivo activity, with an ED50 inlowering cholesterol levels in the cholesterol-fed hamster
Format: functional, Cricetulus griseus

Compound: CCCCCCCN(CCCCCSc1nc(-c2ccccc2)c(-c2ccccc2)[nH]1)C(=O)Nc1ccc(F)cc1F [LECIMIBIDE]
- ED50: 3 mg/kg

Reference: ChEMBL document CHEMBL1128039, “Acyl CoA:cholesterol acyltransferase (ACAT) inhibitors: ureas bearing two heterocyclic head groups” (Bioorg Med Chem Lett, 1995)
